Reference: US20080038245A1, “Methods of modulating angiogenesis” (priority 2001, published 2008)

What was measured:
BREC [1] = details: VEGF 0.6 nM, sentence cites ref. (2); cited from earlier work
BREC [2] = experiment: Cell migration assay (modified Boyden chamber); assay type: cell-based, bovine; details: VEGF 0.6 nM
Procedure: Primary cultures of bovine retinal endothelial cells (BREC) were isolated and cultured as described (17). […] A modified Boyden chamber migration assay was performed by using BREC (25). The top and bottom surface of the chamber membrane was coated with collagen I. […] Cells that migrated to the bottom of the chamber were enumerated by counting SYTOX green (Molecular Probes) nucleic acid-stained cells.

BREC [3] = experiment: Cell growth assay (DNA content, VEGF-induced proliferation); assay type: cell-based, bovine; details: VEGF 0.6 nM, after 4 days
Procedure: Primary cultures of bovine retinal endothelial cells (BREC) were isolated and cultured as described (17). Only cells from passages 2-7 were used for the experiments.
BREC were plated onto 12-well culture plates and incubated overnight in DMEM containing 10% calf serum, after which the cells were infected with adenovirus (23). After incubation for 4 days at 37° C. with or without VEGF (0.6 nM), the cells were lysed in 0.1% SDS, and the DNA content was measured by means of Hoechst-33258 dye and a fluorometer (model TKO-100, Hoefer). E2 promoter binding factor (E2F) decoys were used as described (24).

Rb = Rb phosphorylation in BREC (phospho-specific antibodies); assay type: cell-based, bovine; details: time-dependent, all sites (S249/T242, S780, S795, S807/S811, S821)
E2F = E2F luciferase assay in BREC; assay type: cell-based, bovine
Procedure: Luciferase reporter constructs (Mercury Cell Cycle Profiling System, CLONTECH) were introduced into cells with LipofectAMINE reagent (Life Technologies, Rockville, Md.) as instructed by the manufacturer. Luciferase activity was measured by using the Dual-Luciferase Reporter Assay system (Promega).

PKCβ2 and Rb = experiment: Association of PKCβ2 with Rb in BREC (immunoprecipitation / immunoblot); assay type: cell-based, bovine

CN(C)CCCn1cc(C2=C(c3c[nH]c4ccccc34)C(=O)NC2=O)c2ccccc21 [GFX]
effect on VEGF's mitogenic activity (BREC [1]): blocked VEGF's mitogenic activity completely | effect on VEGF-increased BREC migration (BREC [2]): inhibited

COc1cccc(-c2cc(=O)c3ccccc3o2)c1N [PD98059]
effect on VEGF's mitogenic activity (BREC [1]): blocked VEGF's mitogenic activity completely | effect on VEGF-increased BREC migration (BREC [2]): inhibited

COC[C@H]1OC(=O)c2coc3c2[C@@]1(C)C1=C(C3=O)[C@@H]2CCC(=O)[C@@]2(C)C[C@H]1OC(C)=O [wortmannin]
inhibition of VEGF-induced BREC migration (BREC [2]): 41%

VEGF
increase in BREC total DNA content (BREC [3]): 2 fold | increase of phosphorylation of Rb (Rb): up to 3 fold | increase of E2F activity (E2F): 8.6 fold | increase of migration of BREC (BREC [2]): 2 fold | increase of phosphorylated Rb levels (pS780) in PKCβ2-Rb complex (PKCβ2 and Rb; VEGF 0.6 nM, overexpression of PKCβ2): 2- to 3 fold | increase of amount of PKCβ2-associated Rb protein (PKCβ2 and Rb; VEGF 0.6 nM, immunoprecipitation with antibodies to Rb, immunoblot PKCβ2): 1.7 fold | increase of association of PKCβ2 with Rb (PKCβ2 and Rb; immunoprecipitation with anti-PKCβ2 antibody, Rb immunoblot): 2.2 fold
